Laboratory results published in patent US7176237B2, “Tricyclic-bis-enone derivatives and methods of use thereof” (The Trustees of Dartmouth College, priority 2002, dated 2007).
Like-named read-outs stand apart in the source and are kept apart here.

Key:
[1] = tested on: NO production induced by IFN-γ in mouse macrophages; assay: iNOS assay: inhibition of NO production induced by IFN-γ in mouse macrophages; type: cell-based; conditions: for IC50: Macrophage
[2] = tested on: NRP-152 prostate epithelial cells; assay: Inhibition of proliferation of NRP-152 prostate epithelial cells; type: cell-based; conditions: Rattus norvegicus, Epithelial cell, read-out: IC50 level, inhibition of proliferation
[3] = tested on: iNOS mRNA in RAW 264.7 cells; assay: Suppression of iNOS mRNA formation in RAW 264.7 cells; type: cell-based
Method: (§1) Standard methodology already in place in the inventors laboratory (Suh et al., 1998, 1999, incorporated herein by reference) can be used to evaluate the biological activity of newly synthesized TBEs using suppression of de novo synthesis of iNOS and COX-2 as endpoints. Briefly, primary mouse macrophages or RAW264.7 cells can be cultured under standard conditions and stimulated with either interferon-γ or lipopolysaccharide (LPS). TBEs are added to cell cultures at the same time as inducers. Nitric oxide production in cell culture supernatants can be measured as nitrite accumulation by the Griess reaction. Analysis of levels of iNOS protein in lysates of primary macrophages or RAW cells can be done by Western blot analysis, while levels of iNOS mRNA can be done by routine Northern blot analysis. Prostaglandin E2 production is measured with a commercially available ELISA assay kit, and […] protein and mRNA levels can measured by routine Western and Northern blot analysis, respectively. All these methods are well known in the art.

[4] = tested on: COX-2 mRNA in RAW 264.7 cells; assay: Suppression of COX-2 mRNA formation in RAW 264.7 cells; type: cell-based
Method: as §1

[5] = tested on: activation of macrophages in CD-1 mice; type: in vivo
[6] = tested on: MCF-7 breast cancer cells (ER-positive); assay: Inhibition of estrogen-stimulated growth of MCF-7 breast cancer cells; type: cell-based, human
[7] = tested on: several cancer cell lines; assay: Inhibitory activity against several cancer cell lines (data not shown); type: cell-based
[8] = blocking of induction of iNOS by IFN-γ, NO production in mouse macrophages, read-out: Activity IC50

`CC1(C)C(=O)C(C#N)=C[C@]2(C)C3=CCC[C@@H](O)[C@]3(C)CC[C@@H]12` (racemic) [(±)-TBE-1] showed an IC50 [1, 8] of 310 nM.
For `CC(=O)O[C@@H]1CCC=C2[C@@]3(C)C=C(C#N)C(=O)C(C)(C)[C@@H]3CC[C@]21C` (racemic) [(±)-TBE-2], the IC50 [1, 8] was 480 nM.
With `CC(=O)O[C@@H]1CC(=O)C=C2[C@@]3(C)C=C(C#N)C(=O)C(C)(C)[C@@H]3CC[C@]21C` (racemic) [(±)-TBE-3] the IC50 [2] was roughly 100 nM, the IC50 [1, 8] was 53 nM and the “potency, times less than CDDO (iNOS mRNA)” value ([3]; RAW cells) was “about 10 times”. For the same molecule, the “formation of iNOS mRNA” value ([3]; at 1 μM in RAW cells) was “suppresses”, the “potency, times less than CDDO (COX-2 mRNA)” value ([4]; RAW cells) was “about 10 times” and the “formation of COX-2 mRNA” value ([4]; at 1 μM in RAW cells) was “suppresses”.
Molecule `CC1(C)C(=O)C(C#N)=C[C@]2(C)C3=CC(=O)C[C@@H](O)[C@]3(C)CC[C@@H]12` (racemic) [(±)-TBE-4] has an IC50 [1, 8] of 75 nM.
For `CC1(C)C(=O)C(C#N)=C[C@]2(C)C3=CC(=O)C=C[C@]3(C)CC[C@@H]12` (racemic) [(±)-TBE-5], the IC50 [2] was roughly 100 nM, the IC50 ([1]; NO production induced by IFN-γ in mouse macrophages, order-of-magnitude level, read-out: IC50 level stated in text) was roughly 10 nM and the IC50 [1, 8] was 61 nM.
In the case of `COC(=O)C1=C[C@]2(C)CC[C@H]3C(C)(C)C(=O)C(C#N)=C[C@]3(C)C2=CC1=O` (racemic) [(±)-TBE-6], the IC50 [1, 8] is reported as 91 nM.
Work on `CC1(C)C(=O)C(C#N)=C[C@]2(C)C3=CC(=O)C(C(=O)O)=C[C@]3(C)CC[C@@H]12` (racemic) [(±)-TBE-7] yielded an IC50 [1, 8] of 1600 nM.
In the case of `CC1(C)C(=O)C(C#N)=C[C@]2(C)C3=CC(=O)C(C(N)=O)=C[C@]3(C)CC[C@@H]12` (racemic) [(±)-TBE-8], the IC50 [1, 8] is reported as 61 nM.
`CC1(C)C(=O)C(C#N)=C[C@]2(C)C3=CC(=O)C(C#N)=C[C@]3(C)CC[C@@H]12` (racemic) [(±)-TBE-9] was tested, and the signs of toxicity ([5]; 15 and 30 mg/kg oral, mouse) was “no signs of toxicity”, the “oral activity in vivo” value ([5]; 15 and 30 mg/kg, administered once, oral, mouse) was “orally active” and the “activation of macrophages in mice” value ([5]; CD-1 mice) was “blocks the activation of macrophages”. For the same molecule, the “in vivo potency compared with hydrocortisone” value ([5]; mouse peritoneal inflammation) was “much more potent than hydrocortisone”, the “times more potent than TBE-5” value [1] was roughly 30 times and the IC50 [1, 8] was 2.1 nM. For the same molecule, the IC50 ([1]; Mus musculus, iNOS assay, order-of-magnitude level, read-out: IC50 level stated in text) was roughly 1 nM, the “potency in iNOS assay, statement in words” value (“potency in iNOS assay” below) ([1]; iNOS assay) was “highest potency” and the “times more potent than hydrocortisone” value ([1]; iNOS assay) was “about 5 times”. The “potency, times more than TBE-5” value [6] was “about 30 times” and the “concentration range of dose-dependent inhibition of estrogen-stimulated growth” value ([6]; MCF-7 (ER-positive)) was 10 to 1000 nM.
For `CC1(C)C(=O)C(C#N)=C[C@]2(C)C3=CC(=O)CC[C@]3(C)CC[C@@H]12` (racemic) [(±)-TBE-10], the “times more potent than TBE-5” value [1] was “about 3 times” and the IC50 [1, 8] was 19 nM.
`CC1(C)C(=O)C(C#N)=C[C@@]2(C)C3=CC(=O)C=C[C@@]3(C)CC[C@H]12` [(+)-TBE-5] was tested, and the IC50 [1, 8] was 64 nM, the “potency in iNOS assay” value ([1]; iNOS assay) was “same potency” and the “inhibitory activity against several cancer cell lines, enantiomers compared” value [7] was “same inhibitory activity”.
With `CC1(C)C(=O)C(C#N)=C[C@]2(C)C3=CC(=O)C=C[C@]3(C)CC[C@@H]12` [(−)-TBE-5] the IC50 [1, 8] was 58 nM, the “potency in iNOS assay” value ([1]; iNOS assay) was “same potency” and the “inhibitory activity against several cancer cell lines, enantiomers compared” value [7] was “same inhibitory activity”.
Molecule `C[C@]12CCC(=O)C=C1CC[C@@H]1[C@@H]2[C@@H](O)C[C@@]2(C)[C@H]1CC[C@]2(O)C(=O)CO` [Hydrocortisone, reference compound] has an IC50 [1, 8] of 10 nM.
`CC1(C)CC[C@]2(C(=O)O)CC[C@]3(C)C(=CC[C@@H]4[C@@]5(C)CC[C@H](O)C(C)(C)[C@@H]5CC[C@]43C)[C@@H]2C1` [Oleanolic acid, reference compound] showed an IC50 [1, 8] greater than 40000 nM.
